Reference: patent US20140315876A1, “BETA-LACTAMASE INHIBITORS” (priority 2013, published 2014)
Structures can show the parent of a compound that is named as a salt.

Legend:
[1] = tested on: bacterial strains that express the class D cephalosporinase OXA-15; assay: Synergy MIC / standard BLI potentiation MIC assay, strains expressing OXA-15; format: cell-based, E. coli; settings: in the presence of a β-lactam; comparator Avibactam (comparator compound CCC)
How it was run: (§1)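 Broth microdilution in CAMHB per CLSI, ~10^5 CFU/mL, 18-20 h at 37° C; MIC is lowest concentration with no visible turbidity. Potentiation: β-lactam 128-0.13 μg/mL with BLI fixed at 4 μg/mL. Synergy: BLI serially diluted with β-lactam fixed. Engineered E. coli kept on 25 μg/mL tetracycline.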

[2] = tested on: bacterial strains that express KPC β-lactamases; assay: Synergy MIC / standard BLI potentiation MIC assay, strains expressing KPC β-lactamases; format: cell-based; settings: more active for at least one KPC strain and/or better spectrum of activity than Avibactam; in the presence of a β-lactam
How it was run: as §1

Structure (SMILES)	activity against bacterial strains that express the class D cephalosporinase OXA-15, compared with Avibactam [1]	activity and/or spectrum of activity against bacterial strains that express KPC β-lactamases, compared with Avibactam [2]
O=C1N2C[C@@H](CC[C@H]2c2nnc(C3CC4(CNC4)C3)o2)N1OS(=O)(=O)O [Compound 750, (2S,5R)-2-(5-(2-azaspiro[3,3]heptan-6-yl)-1,3,4-oxadiazol-2-yl)-7-oxo-1,6-diazabicyclo[3.2.1]octan-6-yl hydrogen sulfate]	more active than Avibactam	more active than Avibactam
N[C@H]1C[C@@H](Cc2nnc([C@@H]3CC[C@@H]4CN3C(=O)N4OS(=O)(=O)O)o2)C1 [Compound 728, (2S,5R)-2-(5-(((1s,3R)-3-aminocyclobutyl)methyl)-1,3,4-oxadiazol-2-yl)-7-oxo-1,6-diazabicyclo[3.2.1]octan-6-yl hydrogen sulfate]	more active than Avibactam	more active than Avibactam
O=C1N2C[C@@H](CC[C@H]2c2nnc(CCC3CNC3)o2)N1OS(=O)(=O)O [Compound 742, (2S,5R)-2-(5-(2-(azetidin-3-yl)ethyl)-1,3,4-oxadiazol-2-yl)-7-oxo-1,6-diazabicyclo[3.2.1]octan-6-yl hydrogen sulfate]	more active than Avibactam	more active than Avibactam
